Source: patent EP0551675A1, “Oral hygiene compositions containing antiplaque agents” (UNILEVER N.V., priority 1991, dated 1993)
Converted amounts (≈) assume the structure as drawn. Where two headings read alike, the source gives them in different places.

Key:
[1] = system: Actinomyces naeslundii PK29 and Streptococcus sanguis G9B; assay: Bacterial coaggregation assay; type: cell-based; details: for inhibition of coaggregation between A. naeslundii and S. sanguis: result in words
Description: A bacterial coaggregation assay was used to determine the ability of various amino sugars to interfere with lectin-mediated binding among various bacterial species. For instance, many Actinomyces naeslundii strains coaggregate with Streptococcus sanguis as a result of binding between a lectin produced by the A. naeslundii cells and β-galactose-containing structures on the surface of the streptococci. For the present assay, A. naeslundii PK29 and S. sanguis G9B were cultured overnight in a medium containing 2.5% tryptone, 1.5% yeast extract, 0.1% magnesium sulfate, and 1.0% fructose. The cells were then washed twice in a 1.0 mM potassium phosphate buffer (pH = 6.8) containing 1.0 mM calcium chloride, 0.1 mM magnesium chloride, and 50.0 mM potassium chloride (buffered KCl), after which they were resuspended in buffered KCl at an optical density (540 nm) of 1.5. The coaggregations were performed by combining 0.5 ml of each bacterial suspension with 0.2 ml of 5.0% bovine serum albumin (BSA) and 0.8 ml of an appropriate concentration of a targeted anti-plaque agent in 3.0 ml capped polystyrene cuvettes. The cuvettes (path length 1 cm) were gently inverted at room temperature, and the optical density (540 nm) was determined as a function of time (2.0 min intervals; 20 min). The instrument employed to measure optical density was a variable wavelength spectrophotometer (Gilson Response^(R) Spectrophotometer, bought from Gilson).
The activity of a tested compound was expressed as % inhibition relative to buffer controls (i.e., % inhibition = [1 - change in optical density (inhibitor)]/ change in optical density [control]) x 100 [formula] .
The ability of various aldobionamide compounds (prepared as described in Example 1) to target to β-galactose-specific binding proteins on A. naeslundii and thus to interfere with coaggregation interactions between A. naeslundii and S. sanquis was investigated. Coaggregation of Actinomyces naeslundii PK29 and Streptococcus sanguis G9B was performed as described in the Methods section (Bacterial Coaggregation Assay) above. % Inhibition was calculated as 1.0 - the change in optical density (540 nm) in the sample containing compound tested/the change in optical density in the coaggregation buffer control. The inhibitory activity of the antiplaque agents within the scope of the invention was compared to the inhibitory activity of lactobionic acid and N-alkyl gluconamides, which are not within the scope of the invention. The gluconamides were prepared analogously to N-alkyl lactobionamides from glucono-δ-lactone (Sigma Chemicals) and the requisite aliphatic amine.

[2] = system: Actinomyces naeslundii; assay: Antimicrobial activity determination (MIC); type: cell-based; details: for MIC: read-out: Minimimum Inhibitory Concentrations
Description: (§1) The antimicrobial activity of the targeted agents was assessed by determining the minimum inhibitory concentration (MIC). Pure cultures of various strains of oral bacterial species as indicated in Table 3 were combined with serial dilutions of the targeted agents in beef heart infusion broth (BHI); starting bacterial concentrations were approximately 1.0 x 10E6 colony forming units (CFU) per ml. The mixtures were incubated aerobically at 37 degrees C and the optical density (540 nm, path length 1cm) of the cultures was measured at 0.0, 24.0 and 48.0 hr using Bausch and Lomb Spec 20 variable wavelength spectrophotometer.

[3] = system: Candida albicans; assay: Antimicrobial activity determination (MIC); type: cell-based; details: for MIC: read-out: Minimimum Inhibitory Concentrations
Description: as §1

[4] = system: Streptococcus sanguis; assay: Antimicrobial activity determination (MIC); type: cell-based; details: for MIC: Streptococcus, read-out: Minimimum Inhibitory Concentrations
Description: as §1

[5] = system: Streptococcus sobrinus; assay: Antimicrobial activity determination (MIC); type: cell-based; details: for MIC: read-out: Minimimum Inhibitory Concentrations
Description: as §1

[6] = system: several species of oral bacteria; assay: MIC assays on several species of oral bacteria (stated in words); type: cell-based; details: result in words
Description: as §1

[7] = system: Neisseria subflava; assay: Antimicrobial activity determination (MIC); type: cell-based; details: for MIC: read-out: Minimimum Inhibitory Concentrations
Description: as §1

[8] = system: Porphyromonas gingivalis; assay: Antimicrobial activity determination (MIC); type: cell-based; details: read-out: Minimimum Inhibitory Concentrations
Description: as §1

[9] = system: Prevotella intermedius; assay: Antimicrobial activity determination (MIC); type: cell-based; details: read-out: Minimimum Inhibitory Concentrations
Description: as §1

[10] = system: Veillonella dispar; assay: Antimicrobial activity determination (MIC); type: cell-based; details: read-out: Minimimum Inhibitory Concentrations
Description: as §1

[11] = Krafft point of a 1% dispersion in water; type: physicochemical; details: 1% dispersion of the surfactant in water
Description: The temperature at and above which surfactants begin to form micelles instead of precipitates is referred to as Krafft point (Tk) and at this temperature the solubility of a surfactant becomes equal to its CMC.
Krafft point was measured by preparing a 1% dispersion of the surfactant in water. If the surfactant was soluble at room temperature, the solution was cooled to 0°C. […] If it precipitated out, the solution was slowly warmed with stirring in a water bath. The temperature at which the precipitate dissolved was determined to be the Krafft point.
If the Krafft point was above room temperature, the solution was first heated rapidly to dissolve all the surfactant. It was then cooled until precipitation occurred, and was then slowly warmed to determine the Krafft point described above.

[12] = Foam height, Ross-Miles method; type: physicochemical; details: 45°C, water with 120 ppm hardness
Description: Since most of the foaming data on surfactants is typically obtained by the Ross-Miles method (Ross, J. and Miles, G.D., am. Soc. for Testing Material Method D1173-53 Philadelphia, PA. (1953); Oil & Soap (1958) 62:1260) the foaming ability of these surfactants was also acquired using this method.
In the Ross-Miles method, 200 mL of a solution of surfactant contained in a pipette of specified dimensions with a 2.9-mm-i.d. orifice is allowed to fall 90 cm onto 50 mL of the same solution contained in a cylindrical vessel maintained at a given temperature (often 60°C) by means of a water jacket. The height of the foam produced in the cylindrical vessel is read immediately after all the solution has run out of the pipette (initial foam height) and then again after a given amount of time (generally, 5 min).
Using this method, the foam production (measured initially) and foam stability (the height after 10 minutes) are reported. […] The foam height is represented in millimeters (mm).

[13] = BHI broth, aerobic, 37 degrees C
[14] = Streptococcus sanguis, BHI broth, aerobic, 37 degrees C
[15] = Prevotella intermedius, BHI broth, aerobic, 37 degrees C

Row | Compound | MIC [3, 13] [µg/mL] | MIC [2, 13] [µg/mL] | MIC [7, 13] [µg/mL] | MIC [9, 15] [µg/mL] | MIC [4, 14] [µg/mL] | MIC [5, 13] [µg/mL] | MIC [10, 13] [µg/mL] | also measured
1 | O=C(O)[C@H](O)[C@@H](O)[C@H](O[C@@H]1O[C@H](CO)[C@H](O)[C@H](O)[C@H]1O)[C@H](O)CO [Tetradecyl ammonium Lactobionate, Tetradecylammonium lactobionate] | 120 |  |  |  |  |  |  | inhibition at 500 µM ([1]; Actinomyces naeslundii, 0.5 mMol/L, coaggregation of A. naeslundii PK29 and S. sanguis G9B, relative to buffer control, read-out: Percent Inhibition): 0%; inhibition at 700 µM ([1]; Actinomyces naeslundii, 0.7 mMol/L, coaggregation of A. naeslundii PK29 and S. sanguis G9B, relative to buffer control, read-out: Percent Inhibition): 11%; inhibition at 900 µM ([1]; Actinomyces naeslundii, 0.9 mMol/L, coaggregation of A. naeslundii PK29 and S. sanguis G9B, relative to buffer control, read-out: Percent Inhibition): 66%; inhibition at 1400 µM ([1]; Actinomyces naeslundii, 1.4 mMol/L, coaggregation of A. naeslundii PK29 and S. sanguis G9B, relative to buffer control, read-out: Percent Inhibition): 99%; inhibition at 1800 µM ([1]; Actinomyces naeslundii, 1.8 mMol/L, coaggregation of A. naeslundii PK29 and S. sanguis G9B, relative to buffer control, read-out: Percent Inhibition): 100%; inhibition of coaggregation between A. naeslundii and S. sanguis [1]: effective inhibitor of coaggregation; Minimimum Inhibitory Concentrations [2, 13]: 0.006 % w/v; Minimimum Inhibitory Concentrations [4, 14]: 0.0016 % w/v; Minimimum Inhibitory Concentrations [5, 13]: 0.0125 % w/v; anti-microbial activity [6]: significant anti-microbial activity
2 | CCCCCNC(=O)[C@H](O)[C@@H](O)[C@H](O[C@@H]1O[C@H](CO)[C@H](O)[C@H](O)[C@H]1O)[C@H](O)CO [Pentyl lactobionmamide, N-pentyl lactobionamide] | > 1000 | > 5000 | > 1000 | > 1000 | > 1000 | > 5000 | > 1000 | MIC [8, 13]: > 1000 µg/mL
3 | CCCCCCCCCCNC(=O)[C@H](O)[C@@H](O)[C@H](O[C@@H]1O[C@H](CO)[C@H](O)[C@H](O)[C@H]1O)[C@H](O)CO [Decyl lactobionamide, N-decyl lactobionamide] | 500 (≈ 1000 µM) | > 500 | 500 (≈ 1000 µM) | > 500 | > 500 | > 500 | 500 (≈ 1000 µM) | Krafft Point [11]: 0 °C; Initial Height ([12]; foam production, measured initially): 150 mm; After 10 Minutes ([12]; foam stability, height after 10 minutes): 5 mm
4 | CCCCCCCCCCCCCCNC(=O)[C@H](O)[C@@H](O)[C@H](O[C@@H]1O[C@H](CO)[C@H](O)[C@H](O)[C@H]1O)[C@H](O)CO [Tetradecyl lactobionamide, N-tetradecyl lactobionamide] | 30 (≈ 54.2 µM) | 15 (≈ 27.1 µM) | 60 (≈ 108 µM) | 8 (≈ 14.4 µM) | 30 (≈ 54.2 µM) | 125 (≈ 226 µM) | < 8 | Krafft Point [11]: 46 °C
5 | CCCCCCCCCCCCCCN.Cl [tetradecyl ammonium hydrochloride, reference compound] |  |  |  |  |  |  |  | inhibition of coaggregation between A. naeslundii and S. sanguis [1]: inhibited coaggregation; anti-microbial activity [6]: had antibacterial activity
6 | O=C(O)[C@H](O)[C@@H](O)[C@H](O[C@@H]1O[C@H](CO)[C@H](O)[C@H](O)[C@H]1O)[C@H](O)CO [Lactobionic acid, reference compound] |  |  |  |  |  |  |  | Minimimum Inhibitory Concentrations [2, 13]: >0.5 % w/v; Minimimum Inhibitory Concentrations [4, 14]: >0.5 % w/v; Minimimum Inhibitory Concentrations [5, 13]: >0.5 % w/v
7 | CCCCCCCCNC(=O)[C@H](O)[C@@H](O)[C@H](O[C@@H]1O[C@H](CO)[C@H](O)[C@H](O)[C@H]1O)[C@H](O)CO [Octyl lactobionamide, N-octyl lactobionamide] | > 1000 | > 5000 | > 1000 | > 1000 | > 1000 | > 5000 | > 1000 | MIC [8, 13]: > 1000 µg/mL
8 | O=C(O)[C@H](O)[C@@H](O)[C@H](O[C@@H]1O[C@H](CO)[C@H](O)[C@H](O)[C@H]1O)[C@H](O)CO [Dodecyl ammonium lactobionate, Dodecylammonium lactobionate] |  |  | 125 | 16 |  |  | 16 | Minimimum Inhibitory Concentrations [2, 13]: 0.003 % w/v; Minimimum Inhibitory Concentrations [4, 14]: 0.006 % w/v; Minimimum Inhibitory Concentrations [5, 13]: 0.003 % w/v; anti-microbial activity [6]: significant anti-microbial activity
9 | CCCCCCCCCCCCOS(=O)(=O)[O-].[Na+] [Sodium dodecyl sulfate, reference compound] |  |  |  |  |  |  |  | MIC [2]: 8 µg/mL; MIC [3]: 60 µg/mL; MIC [7]: 8 µg/mL; MIC [8]: 2 µg/mL; MIC ([9]; Prevotella): 16 µg/mL; MIC [4]: 15 µg/mL; MIC [5]: 60 µg/mL; MIC [10]: 60 µg/mL
10 | CCCNC(=O)[C@H](O)[C@@H](O)[C@H](O[C@@H]1O[C@H](CO)[C@H](O)[C@H](O)[C@H]1O)[C@H](O)CO [Propyl lactobionamide, N-propyl lactobionamide] | > 1000 | > 5000 | > 1000 | > 1000 | > 1000 | > 5000 | > 1000 | MIC [8, 13]: > 1000 µg/mL
11 | CCCCCCCCCCCCOC(=O)CCNC(=O)[C@H](O)[C@@H](O)[C@H](O[C@@H]1O[C@H](CO)[C@H](O)[C@H](O)[C@H]1O)[C@H](O)CO [Dodecyl-B-alanyl-lactobionamide, N-lactobionyl dodecyl β-alanate] | 500 (≈ 837 µM) | 125 (≈ 209 µM) | 500 (≈ 837 µM) |  | 125 (≈ 209 µM) | 1000 (≈ 1670 µM) |  | 
12 | Tetradecyl-glycyl-lactobionamide |  |  |  |  |  |  |  | Minimimum Inhibitory Concentrations [2, 13]: 0.0008 % w/v; Minimimum Inhibitory Concentrations [3, 13]: 0.05 % w/v; Minimimum Inhibitory Concentrations [7, 13]: 0.05 % w/v; Minimimum Inhibitory Concentrations [4, 14]: 0.003 % w/v; Minimimum Inhibitory Concentrations [5, 13]: 0.05 % w/v
13 | CCCCCCCCCCNC(=O)[C@H](O)[C@@H](O)[C@H](O)[C@H](O)CO [Decylgluconamide, reference compound] |  | > 5000 |  |  | > 5000 | > 5000 |  | 
14 | CCCCCCCCCCCCCCCCNC(=O)[C@H](O)[C@@H](O)[C@H](O[C@@H]1O[C@H](CO)[C@H](O)[C@H](O)[C@H]1O)[C@H](O)CO [Hexadecyl lactobionamide, N-hexadecyl lactobionamide] | 1000 (≈ 1720 µM) | 60 (≈ 103 µM) | 1000 (≈ 1720 µM) | > 500 | 125 (≈ 215 µM) | 1000 (≈ 1720 µM) | > 500 | MIC [8, 13]: > 500 µg/mL
